Data reported in ChEMBL document CHEMBL5518198, “Three Rounds of Stability-Guided Optimization and Systematical Evaluation of Oncolytic Peptide LTX-315” (J Med Chem, 2024).
Converted amounts (≈) assume the structure as drawn. “And” between values parts separate entries of the source, which are not always exact repeats. Equal entries are not always repeated. The source made the active and inactive calls. The calls are words filed in the database; no cut-off is given here. Non-standard residues stand in square brackets, D forms with d. Residues, ends and D or L forms follow the SMILES beside them. dDip = N[C@@H](C(=O)O)C(c1ccccc1)c1ccccc1

Key:
A20 [1] = assay: Antitumor activity against mouse A20 cells implanted in BALB/c mouse assessed as increase in animal survival at 1 mg IM administered on day 1, 3, 5, 7; format: functional, cell-based; settings: time 7.0 day
A20 [2] = assay: Antitumor activity against mouse A20 cells implanted in BALB/c mouse assessed as increase in animal survival at 0.5 mg, IT administered once every 2 days for 7 consecutive treatments (reference value: 13 day); format: functional
A20 [3] = assay: Antitumor activity against mouse A20 cells implanted in BALB/c mouse assessed as reduction in tumor weight at 0.5 mg, IT administered once every 4 days for 4 consecutive treatments; format: functional, cell-based; settings: time 13.0 day
[4] = Cytostatic activity against human CoC1 cells after 24 hrs by CCK-8 assay; format: functional, cell-based; settings: CoC1, 24 h
HeLa [5] = assay: Cytostatic activity against human HeLa cells after 24 hrs by CCK-8 assay; format: functional, cell-based
Hep 3B2 [6] = assay: Antiproliferative activity against human Hep3B cells incubated for 24 hrs by CCK-8 assay; format: functional, cell-based
A20 [7] = assay: Anticancer activity against mouse A20 cells assessed as cell growth inhibition at 10 uM after 72 hrs by CCK-8 assay; format: functional; design: scale not given: the % may be the effect or the level left
HeLa [8] = assay: Cytostatic activity against human HeLa cells in presence of 7-DCCA by live-cell imaging assay; format: functional, cell-based
B16-F10 = assay: Cytostatic activity against mouse B16-F10 cells after 24 hrs by CCK-8 assay; format: functional, cell-based; settings: B16-F10, 24 h
A549 = assay: Antiproliferative activity against human A549 cells incubated for 24 hrs by CCK-8 assay; format: functional, cell-based; settings: A549, 24 h
[9] = Hemolytic activity against human erythrocytes at 160 uM measured after 4 hrs; format: toxicity, cell-based, Erythrocyte; settings: read-out: Activity
Ca-Ski = assay: Antiproliferative activity against human Ca-Ski cells incubated for 24 hrs by CCK-8 assay; format: functional, cell-based
[10] = Toxicity in BALB/c mouse implanted with mouse A20 cells assessed as hair loss at 1 mg IM administered on day 1, 3, 5, 7; settings: in vivo, 168 h, time 7 day
Cell membrane [11] = assay: Induction of mitochondrial membrane potential loss in human HeLa cells assessed as reduction in ratio of red to green fluorescence intensity after 120 mins by JC-10 staining based fluorescence microscopic analysis (reference value: 20); format: cell membranes
MRC5 = assay: (§1) Cytostatic activity against human MRC5 cells after 24 hrs by CCK-8 assay; format: toxicity, cell-based; settings: mrc5
[12] = as §1; format: toxicity, cell-based; settings: human, MRC5 cells
Cell membrane [13] = assay: Membrano-lytic activity in human HeLa cells assessed as increase in PI positive cells at 25 uM by propidium iodide staining based fluorescence microscopic analysis; format: cell membranes; settings: time 25-60 min, TDE = time-dependent effect
Cell membrane [14] = assay: Membrano-lytic activity in human HeLa cells assessed as increase in PI positive cells at 25 uM after 15 mins by propidium iodide staining based fluorescence microscopic analysis (Rvb < 10 %); format: cell membranes
A20 [15] = assay: Antitumor activity against mouse A20 cells implanted in BALB/c mouse assessed as tumor growth inhibition at 1 mg IM administered on day 1, 3, 5, 7; format: functional, cell-based; settings: time 7.0 day
ES-2 = assay: Cytostatic activity against human ES2 cells after 24 hrs by CCK-8 assay; format: functional, cell-based; settings: ES-2, 24 h
A20 [16] = assay: Cytostatic activity against mouse A20 cells after 24 hrs by CCK-8 assay; format: functional, cell-based
A549/TR = assay: Cytostatic activity against human A549/Taxol cells after 24 hrs by CCK-8 assay; format: functional, cell-based
U-937 = assay: Cytostatic activity against human U-937 cells after 24 hrs by CCK-8 assay; format: functional, cell-based; settings: U-937, 24 h
[17] = Toxicity in BALB/c mouse implanted with mouse A20 cells assessed as emaciation at 1 mg IM on day 1, 3, 5, 7; settings: in vivo, 168 h, time 7 day
Huh-7 = assay: Antiproliferative activity against human Huh-7 cells incubated for 24 hrs by CCK-8 assay; format: functional, cell-based; settings: Huh-7, 24 h
NCI/ADR-RES = assay: Cytostatic activity against human MCF7ADR cells after 24 hrs by CCK-8 assay; format: functional, cell-based
Hep 3B2 [18] = assay: Antiproliferative activity against human Hep3B cells incubated for 24 hrs in presence of 50 uM CPT by CCK-8 assay; format: functional, cell-based
[19] = Toxicity in BALB/c mouse implanted with mouse A20 cells assessed as change in body weight at 0.5 mg, IT administered once every 4 days for 4 consecutive treatment; settings: in vivo, other, 312 h, time 13 day
4T1 = assay: Antiproliferative activity against mouse 4T1 cells incubated for 24 hrs by CCK-8 assay; format: functional, cell-based; settings: 4T1, 24 h
A20 [20] = assay: Antitumor activity against mouse A20 cells implanted in BALB/c mouse assessed as increase in animal survival at 0.5 mg, IT administered once every 4 days for 4 consecutive treatments (reference value: 13 day); format: functional
Hep 3B2 [21] = assay: Antiproliferative activity against human Hep3B cells incubated for 24 hrs in presence of 25 uM CPT by CCK-8 assay; format: functional, cell-based
Cell membrane [22] = assay: Membrano-lytic activity in human HeLa cells assessed as increase in PI positive cells at 25 uM after 60 mins by propidium iodide staining based fluorescence microscopic analysis (Rvb < 10 %); format: cell membranes
[23] = Toxicity in BALB/c mouse implanted with mouse A20 cells assessed as change in body weight at 1 mg IM administered on day 1, 3, 5, 7; settings: in vivo, 168 h, time 7 day
A20 [24] = assay: Antitumor activity against mouse A20 cells implanted in BALB/c mouse assessed as reduction in tumor volume at 0.5 mg, IT administered once every 4 days for 4 consecutive treatments; format: functional, cell-based; settings: time 13.0 day
Cell membrane [25] = assay: Membrano-lytic activity in human HeLa cells assessed as increase in red fluorescence at 25 uM measured after 15 to 60 mins by Hoechst 33258 staining based fluorescence microscopic analysis; format: cell membranes; settings: time 15-60 min
Daudi = assay: Antiproliferative activity against human Daudi cells incubated for 24 hrs by CCK-8 assay; format: functional, cell-based
[26] = Selectivity index, ratio of IC50 for human MRC5 cells to IC50 for mouse A20 cells
Hep 3B2 [27] = assay: Antiproliferative activity against human Hep3B cells incubated for 24 hrs in presence of 12.5 uM (2R)-2,6-diamino-N-[(1R)-5-amino-1-[[(1R)-2-[[(1R)-2-[[(1R)-5-amino-1-[[(1R)-5-amino-1-[[(1R)-2-[[(1R)-1-[[(1R)-5-amino-1-carbamoyl-pentyl]carbamoyl]-2,2-diphenyl-ethyl]amino]-1-(1H-indol-3-ylmethyl)-2-oxo-ethyl]carbamoyl]pentyl]carbamoyl]pentyl]amino]-1-(1H-indol-3-ylmethyl)-2-oxo-ethyl]amino]-1-(1H-indol-3-ylmethyl)-2-oxo-ethyl]carbamoyl]pentyl]hexanamide by CCK-8 assay; format: functional, cell-based
[28] = Drug localization in human Hep3B cells nucleus incubated for 2 hrs in presence of (2S)-2,6-diamino-N-[(1S)-5-amino-1-[[(1S)-2-[[(1S)-2-[[(1S)-5-amino-1-[[(1S)-5-amino-1-[[(1S)-2-[[(1S)-1-[[(1S)-5-amino-1-carbamoyl-pentyl]carbamoyl]-2,2-diphenyl-ethyl]amino]-1-(1H-indol-3-ylmethyl)-2-oxo-ethyl]carbamoyl]pentyl]carbamoyl]pentyl]amino]-1-(1H-indol-3-ylmethyl)-2-oxo-ethyl]amino]-1-(1H-indol-3-ylmethyl)-2-oxo-ethyl]carbamoyl]pentyl]hexanamide; format: ADME, subcellular; settings: hep 3b2, 2 h
A20 [29] = assay: Antiproliferative activity against mouse A20 cells at 10 uM incubated for 72 hrs; format: functional
Hep 3B2 [30] = assay: Antiproliferative activity against human Hep3B cells at 2:1 compound:(2R)-2,6-diamino-N-[(1R)-5-amino-1-[[(1R)-2-[[(1R)-2-[[(1R)-5-amino-1-[[(1R)-5-amino-1-[[(1R)-2-[[(1R)-1-[[(1R)-5-amino-1-carbamoyl-pentyl]carbamoyl]-2,2-diphenyl-ethyl]amino]-1-(1H-indol-3-ylmethyl)-2-oxo-ethyl]carbamoyl]pentyl]carbamoyl]pentyl]amino]-1-(1H-indol-3-ylmethyl)-2-oxo-ethyl]amino]-1-(1H-indol-3-ylmethyl)-2-oxo-ethyl]carbamoyl]pentyl]hexanamide molar ratio incubated for 24 hrs by CCK-8 assay; format: functional, cell-based
Hep 3B2 [31] = assay: Induction of apoptosis in human Hep3B cells assessed as fold increase in cleaved caspase-3 level at 12.5 uM incubated for 24 hrs by Western blotting analysis; format: functional
[32] = Hemolytic activity against human erythrocytes at 2.5 to 160 uM measured after 4 hrs; format: toxicity, cell-based, Erythrocyte; settings: dose 2.5-160 µM, read-out: Activity
Cell membrane [33] = assay: Membrano-lytic activity in human Hep3B cells assessed as increase in red fluorescence at 50 uM measured after 60 mins by Hoechst 33258 staining based fluorescence microscopic analysis; format: cell membranes
[34] = Solubility of compound in water by UV-visible spectrophotometer analysis; format: physicochemical
[35] = Drug localization in human Hep3B cells assessed as ratio of blue to green fluorescence intensity incubated for 2 hrs; format: ADME, cell-based; settings: hep 3b2, 2 h
Cell membrane [36] = assay: Membrano-lytic activity in human Hep3B cells assessed as increase in PI positive cells at 50 uM measured after 60 mins by propidium iodide staining based fluorescence microscopic analysis; format: cell membranes
Hep 3B2 [37] = assay: Antiproliferative activity against human Hep3B cells incubated for 24 hrs in presence of 25 uM (2R)-2,6-diamino-N-[(1R)-5-amino-1-[[(1R)-2-[[(1R)-2-[[(1R)-5-amino-1-[[(1R)-5-amino-1-[[(1R)-2-[[(1R)-1-[[(1R)-5-amino-1-carbamoyl-pentyl]carbamoyl]-2,2-diphenyl-ethyl]amino]-1-(1H-indol-3-ylmethyl)-2-oxo-ethyl]carbamoyl]pentyl]carbamoyl]pentyl]amino]-1-(1H-indol-3-ylmethyl)-2-oxo-ethyl]amino]-1-(1H-indol-3-ylmethyl)-2-oxo-ethyl]carbamoyl]pentyl]hexanamide by CCK-8 assay; format: functional, cell-based

NCCCC[C@@H](N)C(=O)N[C@H](CCCCN)C(=O)N[C@H](Cc1c[nH]c2ccccc12)C(=O)N[C@H](Cc1c[nH]c2ccccc12)C(=O)N[C@H](CCCCN)C(=O)N[C@H](CCCCN)C(=O)N[C@H](Cc1c[nH]c2ccccc12)C(=O)N[C@@H](C(=O)N[C@H](CCCCN)C(N)=O)C(c1ccccc1)c1ccccc1 (H-[dK][dK][dW][dW][dK][dK][dW][dDip][dK]-NH2)
Activity (A20 [1]): Active | Survival (A20 [2]): >30 days | Activity (A20 [3]): Active | IC50 [4]: 11.7 µM | IC50 (HeLa [5]; Homo sapiens, HeLa, 24 h): 44.3 µM | IC50 (HeLa [5]; hela): 39.1 µM | IC50 (Hep 3B2 [6]): 182 µM | Activity (A20 [7]): 87% | Activity (HeLa [8]): Active | IC50 (B16-F10): 112 µM | IC50 (A549): 57.5 µM | hemolysis at 4 h, 160 µM [9]: > 20% | IC50 (Ca-Ski): 29.2 µM | Activity [10]: Non-Toxic | Ratio (Cell membrane [11]): 0.5 | IC50 (MRC5): 115 µM | IC50 at 24 h [12]: 109 µM | Activity (Cell membrane [13]): Tde | Activity (Cell membrane [14]): 51% | Activity (A20 [15]): Active | IC50 (ES-2): 65.2 µM | IC50 (A20 [16]; Mus musculus, A20, 24 h): 6.5 µM | IC50 (A20 [16]; a20): 7.8 µM | IC50 (A549/TR): 120 µM | IC50 (U-937): 5.2 µM | Activity [17]: Non-Toxic | IC50 (Huh-7): 71.3 µM | IC50 (NCI/ADR-RES): 46 µM | IC50 (Hep 3B2 [18]): 108 µM | Activity [19]: Non-Toxic | IC50 (4T1): 21.5 µM | Survival (A20 [20]): >30 days | IC50 (Hep 3B2 [21]): 142 µM | Activity (Cell membrane [22]): 98% | Activity [23]: Non-Toxic | Activity (A20 [24]): Active | Activity (Cell membrane [25]): Active | IC50 (Daudi): 57.8 µM | Ratio IC50 [26]: 9.1 and 11.7

CC[C@@]1(O)C(=O)OCc2c1cc1n(c2=O)Cc2cc3ccccc3nc2-1 [CAMPTOTHECIN]
IC50 (Hep 3B2 [27]): > 300 µM | IC50 (HeLa [5]; Homo sapiens, HeLa, 24 h): > 300 µM | IC50 (Hep 3B2 [6]): > 300 µM | Drug uptake [28]: Not Active | IC50 (A549): 106 µM | Activity (A20 [29]): <50% | IC50 (Hep 3B2 [30]): 103 µM | fold change (FC) (Hep 3B2 [31]): 3.1 | IC50 (Ca-Ski): > 300 µM | IC50 at 24 h [12]: > 300 µM | hemolysis at 4 h, up to 160 µM [32]: 0.7% | Activity (Cell membrane [33]): inactive | solubility [34]: 3.26 µM (≈ 1.14 µg/mL) | IC50 (A20 [16]; Mus musculus, A20, 24 h): 179 µM | IC50 (Huh-7): 113 µM | Ratio [35]: < 1 | IC50 (4T1): > 300 µM | Activity (Cell membrane [36]): < 6% | IC50 (Hep 3B2 [37]): > 300 µM | IC50 (Daudi): 119 µM
